{"source": "patent US20240174643A1", "about": "“SOS1 PROTEIN DEGRADERS, PHARMACEUTICAL COMPOSITIONS THEREOF, AND THEIR THERAPEUTIC APPLICATIONS” (Bio TheryX, Inc., priority 2021, published 2024)", "assay_type_in_all_cases": "cell-based", "key": {"[1]": {"system": "H358 (G12C) cells", "test": "Cell viability assay (CELLTITER-GLO), H358 cells", "conditions": "Homo sapiens, NCI-H358, 72 h, 3 days at 37° C., CELLTITER-GLO luminescence, read-out: Inhibition of Cancerous Cells IC50 (μM) H358 (G12C)", "experimental": "(§1) AsPC-1, 1358, and SW48 cells were cultured in RPMI 1640 media supplemented with 10% fetal bovine serum, streptomycin, and penicillin. Lovo and SW480 cells were cultured in DMEM media supplemented with 10% fetal bovine serum, streptomycin, and penicillin. The cell lines were plated in their respective medium supplemented with 2.5% fetal bovine serum, streptomycin, and penicillin. All cell lines were plated in white walled 96-well plates at 2,000 cells/well or 384-well plates at 500 cells/well, except Lovo, which were plated at 4,000 or 1,000 cells/well, respectively. The cells were incubated in DMSO (control) or a compound for 3 days at 37° C. under 5% CO2. A CELLTITER-GLO® reagent (100 μL) was then added to each well. After a 10 min incubation with shaking, luminescence was measured using an ENVISION® multimode plate reader."}, "[2]": {"system": "AsPC-1 (G12D) cells", "test": "Cell viability assay (CELLTITER-GLO), AsPC-1 cells", "conditions": "Homo sapiens, ASPC1, 72 h, 3 days at 37° C., CELLTITER-GLO luminescence, read-out: Inhibition of Cancerous Cells IC50 (μM) AsPC-1 (G12D)", "experimental": "as §1"}, "[3]": {"system": "Lovo (G13D) cells", "test": "Cell viability assay (CELLTITER-GLO), Lovo cells", "conditions": "Homo sapiens, 72 h, 3 days at 37° C., CELLTITER-GLO luminescence, read-out: Inhibition of Cancerous Cells IC50 (μM) Lovo (G13D)", "experimental": "as §1"}, "[4]": {"system": "SW48 (wt) cells", "test": "Cell viability assay (CELLTITER-GLO), SW48 cells", "conditions": "Homo sapiens, 72 h, 3 days at 37° C., CELLTITER-GLO luminescence, read-out: Inhibition of Cancerous Cells IC50 (μM) SW48 (wt)", "experimental": "as §1"}, "[5]": {"system": "SW480 (G12V) cells", "test": "Cell viability assay (CELLTITER-GLO), SW480 cells", "conditions": "Homo sapiens, 72 h, 3 days at 37° C., CELLTITER-GLO luminescence, read-out: Inhibition of Cancerous Cells IC50 (μM) SW480 (G12V)", "experimental": "as §1"}}, "data": [{"smiles": "COc1cc2c(N[C@H](C)c3cccc(Br)c3)nc(C)nc2cc1OCCCCCCCCCN1CCN(C(=O)COc2cccc(N3CCC(=O)NC3=O)c2)CC1", "note": "[Compound C5, (R)-1-(3-(2-(4-(9-((4-((1-(3-Bromophenyl)ethyl)amino)-6-methoxy-2-methyl-quinazolin-7-yl)oxy)nonyl)piperazin-1-yl)-2-oxoethoxy)phenyl)dihydropyrimidine-2,4(1H,3H)-dione]", "values": [{"measurement": "IC50", "setting": "[1]", "value": 1.9, "unit": "µM"}, {"measurement": "IC50", "setting": "[2]", "value": 1.5, "unit": "µM"}, {"measurement": "IC50", "setting": "[3]", "value": 0.63, "unit": "µM"}, {"measurement": "IC50", "setting": "[4]", "value": 2, "unit": "µM"}, {"measurement": "IC50", "setting": "[5]", "value": 0.57, "unit": "µM"}]}, {"smiles": "COc1cc2c(N[C@H](C)c3cccc(Br)c3)nc(C)nc2cc1OCCCCCCCCCCCN1CCN(C(=O)COc2ccc(N3CCC(=O)NC3=O)cc2)CC1", "note": "[Compound C3, (R)-1-(4-(2-(4-(11-((4-((1-(3-Bromophenyl)ethyl)amino)-6-methoxy-2-methyl-quinazolin-7-yl)oxy)undecyl)piperazin-1-yl)-2-oxoethoxy)phenyl)dihydropyrimidine-2,4(1H,3H)-dione]", "values": [{"measurement": "IC50", "setting": "[1]", "value": 3.4, "unit": "µM"}, {"measurement": "IC50", "setting": "[2]", "value": 2.1, "unit": "µM"}, {"measurement": "IC50", "setting": "[3]", "value": 0.93, "unit": "µM"}, {"measurement": "IC50", "setting": "[4]", "value": 2.1, "unit": "µM"}, {"measurement": "IC50", "setting": "[5]", "value": 0.66, "unit": "µM"}]}, {"smiles": "COc1cc2c(N[C@H](C)c3cccc(Br)c3)nc(C)nc2cc1OCCCCCCCCCN1CCN(C(=O)COc2ccc(N3CCC(=O)NC3=O)cc2)CC1", "note": "[Compound C2, (R)-1-(4-(2-(4-(9-((4-((1-(3-Bromophenyl)ethyl)amino)-6-methoxy-2-methyl-quinazolin-7-yl)oxy)nonyl)piperazin-1-yl)-2-oxoethoxy)phenyl)dihydropyrimidine-2,4(1H,3H)-dione]", "values": [{"measurement": "IC50", "setting": "[1]", "value": 1.4, "unit": "µM"}, {"measurement": "IC50", "setting": "[2]", "value": 1.6, "unit": "µM"}, {"measurement": "IC50", "setting": "[3]", "value": 0.55, "unit": "µM"}, {"measurement": "IC50", "setting": "[4]", "value": 1.6, "unit": "µM"}, {"measurement": "IC50", "setting": "[5]", "value": 0.66, "unit": "µM"}]}, {"smiles": "COc1cc2c(N[C@H](C)c3cccc(Br)c3)nc(C)nc2cc1OCCCCCCCCCCCN1CCN(C(=O)COc2cccc(N3CCC(=O)NC3=O)c2)CC1", "note": "[Compound C6, (R)-1-(3-(2-(4-(11-((4-((1-(3-Bromophenyl)ethyl)amino)-6-methoxy-2-methyl-quinazolin-7-yl)oxy)undecyl)piperazin-1-yl)-2-oxoethoxy)phenyl)dihydropyrimidine-2,4(1H,3H)-dione]", "values": [{"measurement": "IC50", "setting": "[1]", "value": 3.3, "unit": "µM"}, {"measurement": "IC50", "setting": "[2]", "value": 3.4, "unit": "µM"}, {"measurement": "IC50", "setting": "[3]", "value": 0.74, "unit": "µM"}, {"measurement": "IC50", "setting": "[4]", "value": 2.8, "unit": "µM"}, {"measurement": "IC50", "setting": "[5]", "value": 0.58, "unit": "µM"}]}, {"smiles": "COc1cc2c(N[C@H](C)c3cccc(Br)c3)nc(C)nc2cc1OCCCCCCCCCCCN1CCN(C(=O)CNc2ccc3c(N4CCC(=O)NC4=O)nn(C)c3c2)CC1", "note": "[Compound D7, (R)-1-(6-((2-(4-(11-((4-((1-(3-Bromophenyl)ethyl)amino)-6-methoxy-2-methyl-quinazolin-7-yl)oxy)undecyl)piperazin-1-yl)-2-oxoethyl)amino)-1-methyl-1H-indazol-3-yl)-dihydropyrimidine-2,4(1H,3H)-dione]", "values": [{"measurement": "IC50", "setting": "[1]", "value": "> 10", "unit": "µM"}, {"measurement": "IC50", "setting": "[2]", "value": 4.5, "unit": "µM"}, {"measurement": "IC50", "setting": "[3]", "value": 1.1, "unit": "µM"}, {"measurement": "IC50", "setting": "[4]", "value": 0.67, "unit": "µM"}, {"measurement": "IC50", "setting": "[5]", "value": 0.36, "unit": "µM"}]}, {"smiles": "COc1cc2c(N[C@H](C)c3cccc(Br)c3)nc(C)nc2cc1OCCCCCCCCCN1CCN(C(=O)CNc2ccc3c(N4CCC(=O)NC4=O)nn(C)c3c2)CC1", "note": "[Compound D8, (R)-1-(6-((2-(4-(9-((4-((1-(3-Bromophenyl)ethyl)amino)-6-methoxy-2-methyl-quinazolin-7-yl)oxy)nonyl)piperazin-1-yl)-2-oxoethyl)amino)-1-methyl-1H-indazol-3-yl)-dihydropyrimidine-2,4(1H,3H)-dione]", "values": [{"measurement": "IC50", "setting": "[1]", "value": 6.1, "unit": "µM"}, {"measurement": "IC50", "setting": "[2]", "value": 1.7, "unit": "µM"}, {"measurement": "IC50", "setting": "[3]", "value": 1.2, "unit": "µM"}, {"measurement": "IC50", "setting": "[4]", "value": 0.4, "unit": "µM"}, {"measurement": "IC50", "setting": "[5]", "value": 0.35, "unit": "µM"}]}, {"smiles": "COc1cc2c(N[C@H](C)c3cccc(Br)c3)nc(C)nc2cc1OCCCCCCCCCCCN1CCN(C(=O)CNc2cccc3c(N4CCC(=O)NC4=O)nn(C)c23)CC1", "note": "[Compound D10, (R)-1-(7-((2-(4-(11-((4-((1-(3-Bromophenyl)ethyl)amino)-6-methoxy-2-methyl-quinazolin-7-yl)oxy)undecyl)piperazin-1-yl)-2-oxoethyl)amino)-1-methyl-1H-indazol-3-yl)-dihydropyrimidine-2,4(1H,3H)-dione]", "values": [{"measurement": "IC50", "setting": "[1]", "value": "> 10", "unit": "µM"}, {"measurement": "IC50", "setting": "[2]", "value": "> 10", "unit": "µM"}, {"measurement": "IC50", "setting": "[3]", "value": 1.4, "unit": "µM"}, {"measurement": "IC50", "setting": "[4]", "value": "> 10", "unit": "µM"}, {"measurement": "IC50", "setting": "[5]", "value": 1.2, "unit": "µM"}]}, {"smiles": "COc1cc2c(N[C@H](C)c3cccc(Br)c3)nc(C)nc2cc1OCCCCCCCN1CCN(C(=O)COc2cccc(N3CCC(=O)NC3=O)c2)CC1", "note": "[Compound C4, (R)-1-(3-(2-(4-(7-((4-((1-(3-Bromophenyl)ethyl)amino)-6-methoxy-2-methyl-quinazolin-7-yl)oxy)heptyl)piperazin-1-yl)-2-oxoethoxy)phenyl)dihydropyrimidine-2,4(1H,3H)-dione]", "values": [{"measurement": "IC50", "setting": "[1]", "value": 1.2, "unit": "µM"}, {"measurement": "IC50", "setting": "[2]", "value": 1.4, "unit": "µM"}, {"measurement": "IC50", "setting": "[3]", "value": 0.94, "unit": "µM"}, {"measurement": "IC50", "setting": "[4]", "value": 1.3, "unit": "µM"}, {"measurement": "IC50", "setting": "[5]", "value": 0.73, "unit": "µM"}]}, {"smiles": "COc1cc2c(N[C@H](C)c3cccc(Br)c3)nc(C)nc2cc1OCCCCCCCN1CCN(C(=O)COc2ccc(N3CCC(=O)NC3=O)cc2)CC1", "note": "[Compound C1, (R)-1-(4-(2-(4-(7-((4-((1-(3-Bromophenyl)ethyl)amino)-6-methoxy-2-methyl-quinazolin-7-yl)oxy)heptyl)piperazin-1-yl)-2-oxoethoxy)phenyl)dihydropyrimidine-2,4(1H,3H)-dione]", "values": [{"measurement": "IC50", "setting": "[1]", "value": 1.9, "unit": "µM"}, {"measurement": "IC50", "setting": "[2]", "value": 2.3, "unit": "µM"}, {"measurement": "IC50", "setting": "[3]", "value": 0.69, "unit": "µM"}, {"measurement": "IC50", "setting": "[4]", "value": 2.2, "unit": "µM"}, {"measurement": "IC50", "setting": "[5]", "value": 1.7, "unit": "µM"}]}, {"smiles": "COc1cc2nc(C)nc(N[C@H](C)c3cccc(Br)c3)c2cc1OC", "note": "[reference compound]", "values": [{"measurement": "IC50", "setting": "[1]", "value": 3.2, "unit": "µM"}, {"measurement": "IC50", "setting": "[2]", "value": 5.1, "unit": "µM"}, {"measurement": "IC50", "setting": "[3]", "value": 2.5, "unit": "µM"}, {"measurement": "IC50", "setting": "[4]", "value": 3.6, "unit": "µM"}, {"measurement": "IC50", "setting": "[5]", "value": 3.4, "unit": "µM"}]}]}
